In patent publication US9695155B2, “Herbicidal substituted pyrimidinyloxy benzene compounds” (E. I. DU PONT DE NEMOURS AND COMPANY, priority 2013, dated 2017):

How the values were obtained:
barnyardgrass [1] = assay: Test A preemergence; assay type: in vivo, Echinochloa crus-galli; conditions: for Plant response rating, Barnyardgrass: 125 g ai/ha, 0 to 100 scale where 0 is no effect and 100 is complete control; for Barnyardgrass plant response rating: 500 g ai/ha, 0 to 100 scale, 0 no effect, 100 complete control, approx. 10 days
Method in brief: (§1)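 Injury scores run from 0, no effect, to 100, complete control, judged by eye against untreated plants roughly 10 days after treatment. Chemicals carried a surfactant in a non-phytotoxic solvent and went onto loam–sand soil preemergence or onto one- to two-leaf seedlings postemergence.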

large (Lg) crabgrass [2] = assay: Test A preemergence; assay type: in vivo, Digitaria sanguinalis; conditions: for Plant response rating, Crabgrass, Large: 125 g ai/ha, 0 to 100 scale where 0 is no effect and 100 is complete control; for Crabgrass, Large plant response rating: 500 g ai/ha, 0 to 100 scale, 0 no effect, 100 complete control, approx. 10 days
Method in brief: as §1

giant foxtail [3] = assay: Test A preemergence; assay type: in vivo, Setaria faberii; conditions: for Plant response rating, Foxtail, Giant: 125 g ai/ha, 0 to 100 scale where 0 is no effect and 100 is complete control; for Foxtail, Giant plant response rating: 500 g ai/ha, 0 to 100 scale, 0 no effect, 100 complete control, approx. 10 days
Method in brief: as §1

morningglory [4] = assay: Test A preemergence; assay type: in vivo, Ipomoea spp.; conditions: for Plant response rating, Morningglory: 125 g ai/ha, 0 to 100 scale where 0 is no effect and 100 is complete control; for Morningglory plant response rating: 500 g ai/ha, 0 to 100 scale, 0 no effect, 100 complete control, approx. 10 days
Method in brief: as §1

pigweed [5] = assay: Test A preemergence; assay type: in vivo, Amaranthus retroflexus; conditions: for Plant response rating, Pigweed: 125 g ai/ha, 0 to 100 scale where 0 is no effect and 100 is complete control; for Pigweed plant response rating: 500 g ai/ha, 0 to 100 scale, 0 no effect, 100 complete control, approx. 10 days
Method in brief: as §1

velvetleaf [6] = assay: Test A preemergence; assay type: in vivo, Abutilon theophrasti; conditions: for Plant response rating, Velvetleaf: 125 g ai/ha, 0 to 100 scale where 0 is no effect and 100 is complete control; for Velvetleaf plant response rating: 500 g ai/ha, 0 to 100 scale, 0 no effect, 100 complete control, approx. 10 days
Method in brief: as §1

wheat [7] = assay: Test A preemergence; assay type: in vivo, Triticum aestivum; conditions: for Plant response rating, Wheat: 125 g ai/ha, 0 to 100 scale where 0 is no effect and 100 is complete control; for Wheat plant response rating: 500 g ai/ha, 0 to 100 scale, 0 no effect, 100 complete control, approx. 10 days
Method in brief: as §1

corn [8] = assay: Test A preemergence; assay type: in vivo, Zea mays; conditions: for Plant response rating, Corn: 125 g ai/ha, 0 to 100 scale where 0 is no effect and 100 is complete control; for Corn plant response rating: 500 g ai/ha, 0 to 100 scale, 0 no effect, 100 complete control, approx. 10 days
Method in brief: as §1

barnyardgrass [9] = assay: Test A postemergence; assay type: in vivo, Echinochloa crus-galli
Method in brief: as §1

large (Lg) crabgrass [10] = assay: Test A postemergence; assay type: in vivo, Digitaria sanguinalis
Method in brief: as §1

giant foxtail [11] = assay: Test A postemergence; assay type: in vivo, Setaria faberii
Method in brief: as §1

morningglory [12] = assay: Test A postemergence; assay type: in vivo, Ipomoea spp.
Method in brief: as §1

pigweed [13] = assay: Test A postemergence; assay type: in vivo, Amaranthus retroflexus
Method in brief: as §1

velvetleaf [14] = assay: Test A postemergence; assay type: in vivo, Abutilon theophrasti
Method in brief: as §1

wheat [15] = assay: Test A postemergence; assay type: in vivo, Triticum aestivum
Method in brief: as §1

corn [16] = assay: Test A postemergence; assay type: in vivo, Zea mays
Method in brief: as §1

rice = assay: Test B flooded paddy test; assay type: in vivo, Oryza sativa; conditions: Flood, 250 g ai/ha; 0 to 100 scale where 0 is no effect and 100 is complete control
Method in brief: (§2)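 2-leaf stage plants; pots flooded to 3 cm, compound added to paddy water, depth maintained. Greenhouse 13–15 d. Visual rating vs untreated controls, 0 (no effect) to 100 (complete control); dash = no result.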

sedge, umbrella = assay: Test B flooded paddy test; assay type: in vivo, Cyperus difformis; conditions: Flood, 250 g ai/ha; 0 to 100 scale where 0 is no effect and 100 is complete control
Method in brief: as §2

Heteranthera limosa = assay: Test B flooded paddy test; assay type: in vivo; conditions: Flood, 250 g ai/ha; 0 to 100 scale where 0 is no effect and 100 is complete control
Method in brief: as §2

barnyardgrass [17] = assay: Test B flooded paddy test; assay type: in vivo, Echinochloa crus-galli; conditions: Flood, 250 g ai/ha; 0 to 100 scale where 0 is no effect and 100 is complete control
Method in brief: as §2

[18] = 125 g ai/ha, 0 to 100 scale where 0 is no effect and 100 is complete control
[19] = 500 g ai/ha, 0 to 100 scale, 0 no effect, 100 complete control

SMILES	Plant response rating, Barnyardgrass (barnyardgrass [1])	Barnyardgrass plant response rating (barnyardgrass [1])	Plant response rating, Crabgrass, Large (large (Lg) crabgrass [2])	Crabgrass, Large plant response rating (large (Lg) crabgrass [2])	Plant response rating, Foxtail, Giant (giant foxtail [3])	Foxtail, Giant plant response rating (giant foxtail [3])	Plant response rating, Morningglory (morningglory [4])	Morningglory plant response rating (morningglory [4])	Plant response rating, Pigweed (pigweed [5])	Pigweed plant response rating (pigweed [5])	Plant response rating, Velvetleaf (velvetleaf [6])	Velvetleaf plant response rating (velvetleaf [6])	Plant response rating, Wheat (wheat [7])	Wheat plant response rating (wheat [7])	Plant response rating, Corn (corn [8])	Corn plant response rating (corn [8])	Plant response rating, Barnyardgrass (barnyardgrass [9]; [18])	Plant response rating, Barnyardgrass (barnyardgrass [9]; [19])	Plant response rating, Crabgrass, Large (large (Lg) crabgrass [10]; [18])	Plant response rating, Crabgrass, Large (large (Lg) crabgrass [10]; [19])	further results
Clc1cnc(Oc2ccccc2-n2cc(-c3ccccc3)cn2)nc1 [Compound 22]	0	20	20	90	20	90	0	0	20	90	0	20	0	0	0	0	50	70	30	70	Plant response rating, Foxtail, Giant (giant foxtail [11]; [18]): 40; Plant response rating, Foxtail, Giant (giant foxtail [11]; [19]): 90; Plant response rating, Morningglory (morningglory [12]; [18]): 80; Plant response rating, Morningglory (morningglory [12]; [19]): 90; Plant response rating, Pigweed (pigweed [13]; [18]): 50; Plant response rating, Pigweed (pigweed [13]; [19]): 100; Plant response rating, Velvetleaf (velvetleaf [14]; [18]): 50; Plant response rating, Velvetleaf (velvetleaf [14]; [19]): 100; Plant response rating, Wheat (wheat [15]; [18]): 0; Plant response rating, Wheat (wheat [15]; [19]): 0; Plant response rating, Corn (corn [16]; [18]): 0; Plant response rating, Corn (corn [16]; [19]): 30; Plant response rating, Rice (rice): 40; Plant response rating, Sedge, Umbrella (sedge, umbrella): 80; Plant response rating, Ducksalad (Heteranthera limosa): 65; Plant response rating, Barnyardgrass (barnyardgrass [17]): 20
CC=Cc1cnn(-c2ccccc2Oc2ncc(Cl)cn2)c1 [Compound 27]	0	20	0	50	0	40	0	0	10	20	0	10	0	0	0	0	0	10	20	60	Plant response rating, Foxtail, Giant (giant foxtail [11]; [18]): 0; Plant response rating, Foxtail, Giant (giant foxtail [11]; [19]): 30; Plant response rating, Morningglory (morningglory [12]; [18]): 10; Plant response rating, Morningglory (morningglory [12]; [19]): 50; Plant response rating, Pigweed (pigweed [13]; [18]): 60; Plant response rating, Pigweed (pigweed [13]; [19]): 70; Plant response rating, Velvetleaf (velvetleaf [14]; [18]): 50; Plant response rating, Velvetleaf (velvetleaf [14]; [19]): 70; Plant response rating, Wheat (wheat [15]; [18]): 0; Plant response rating, Wheat (wheat [15]; [19]): 0; Plant response rating, Corn (corn [16]; [18]): 0; Plant response rating, Corn (corn [16]; [19]): 10; Plant response rating, Rice (rice): 0; Plant response rating, Sedge, Umbrella (sedge, umbrella): 75; Plant response rating, Ducksalad (Heteranthera limosa): 75; Plant response rating, Barnyardgrass (barnyardgrass [17]): 0
C=Cc1cnn(-c2ccccc2Oc2ncc(Cl)cn2)c1 [Compound 31]	20	50	50	90	20	90	0	0	40	60	50	90	0	0	0	0	10	50	50	60	Plant response rating, Foxtail, Giant (giant foxtail [11]; [18]): 40; Plant response rating, Foxtail, Giant (giant foxtail [11]; [19]): 50; Plant response rating, Morningglory (morningglory [12]; [18]): 0; Plant response rating, Morningglory (morningglory [12]; [19]): 30; Plant response rating, Pigweed (pigweed [13]; [18]): 40; Plant response rating, Pigweed (pigweed [13]; [19]): 70; Plant response rating, Velvetleaf (velvetleaf [14]; [18]): 100; Plant response rating, Velvetleaf (velvetleaf [14]; [19]): 100; Plant response rating, Wheat (wheat [15]; [18]): 0; Plant response rating, Wheat (wheat [15]; [19]): 0; Plant response rating, Corn (corn [16]; [18]): 0; Plant response rating, Corn (corn [16]; [19]): 20; Plant response rating, Rice (rice): 25; Plant response rating, Sedge, Umbrella (sedge, umbrella): 30; Plant response rating, Ducksalad (Heteranthera limosa): 80; Plant response rating, Barnyardgrass (barnyardgrass [17]): 0
C=C(C)c1cnn(-c2ccccc2Oc2ncc(Cl)cn2)c1 [Compound 32]	0	60	0	60	0	70	0	0	0	40	10	70	0	0	0	0	0	20	50	50	Plant response rating, Foxtail, Giant (giant foxtail [11]; [18]): 0; Plant response rating, Foxtail, Giant (giant foxtail [11]; [19]): 30; Plant response rating, Morningglory (morningglory [12]; [18]): 0; Plant response rating, Morningglory (morningglory [12]; [19]): 0; Plant response rating, Pigweed (pigweed [13]; [18]): 50; Plant response rating, Pigweed (pigweed [13]; [19]): 70; Plant response rating, Velvetleaf (velvetleaf [14]; [18]): 80; Plant response rating, Velvetleaf (velvetleaf [14]; [19]): 100; Plant response rating, Wheat (wheat [15]; [18]): 0; Plant response rating, Wheat (wheat [15]; [19]): 0; Plant response rating, Corn (corn [16]; [18]): 0; Plant response rating, Corn (corn [16]; [19]): 20; Plant response rating, Rice (rice): 15; Plant response rating, Sedge, Umbrella (sedge, umbrella): 0; Plant response rating, Ducksalad (Heteranthera limosa): 0; Plant response rating, Barnyardgrass (barnyardgrass [17]): 0
COc1ccc(Oc2ncc(Br)cn2)c(-n2cc(Br)cn2)c1 [Compound 43]	0	10	10	50	10	20	0	0	0	20	30	50	0	0	0	0	0	10	10	20	Plant response rating, Foxtail, Giant (giant foxtail [11]; [18]): 0; Plant response rating, Foxtail, Giant (giant foxtail [11]; [19]): 40; Plant response rating, Morningglory (morningglory [12]; [18]): 30; Plant response rating, Morningglory (morningglory [12]; [19]): 50; Plant response rating, Pigweed (pigweed [13]; [18]): 30; Plant response rating, Pigweed (pigweed [13]; [19]): 40; Plant response rating, Velvetleaf (velvetleaf [14]; [18]): 60; Plant response rating, Velvetleaf (velvetleaf [14]; [19]): 100; Plant response rating, Wheat (wheat [15]; [18]): 0; Plant response rating, Wheat (wheat [15]; [19]): 0; Plant response rating, Corn (corn [16]; [18]): 0; Plant response rating, Corn (corn [16]; [19]): 10; Plant response rating, Rice (rice): 0; Plant response rating, Sedge, Umbrella (sedge, umbrella): 0; Plant response rating, Ducksalad (Heteranthera limosa): 75; Plant response rating, Barnyardgrass (barnyardgrass [17]): 0
